Laboratory results: patent publication US8425945B2, “Methods and compositions for regulating biofilm development” (NewSouth Innovations Pty Limited, priority 2005, dated 2013)

What was measured:
[1] = test system: P. aeruginosa PAO1; experiment: Biofilm to planktonic transition on microscope slides in petri dishes with NO donors/scavenger; assay type: cell-based, Pseudomonas aeruginosa; conditions: for biofilm formation (percentage of surface coverage) / planktonic growth (OD600 nm of supernatant): NO donor 1 μM, 24 hours, lesser extent than SNP
[2] = test system: Vibrio cholerae biofilms; experiment: Dispersal of biofilms on slides, surface coverage; assay type: cell-based; conditions: 1 μM GSNO, 24 hours
[3] = test system: P. aeruginosa biofilms; experiment: Sensitivity of biofilms grown with SNP to antimicrobial agents; assay type: cell-based, Pseudomonas aeruginosa; conditions: tobramycin 100 μM, 30 minutes, with 500 nM SNP
[4] = test system: S. marcescens biofilms; experiment: Dispersal of biofilms on slides, surface coverage; assay type: cell-based, Serratia marcescens; conditions: SNAP 100 nM, 24 hours

Row | SMILES | biofilm formation (percentage of surface coverage) [1] | planktonic growth (OD600 nm of supernatant) [1] | further results
1 | CC1(C)N([O])C(c2ccccc2)=[N+]([O-])C1(C)C [PTIO, 2-phenyl-4,4,5,5-tetramethyl-imidazoline-1-oxyl 3-oxide] |  |  | reduction of the SNP effect in both planktonic and biofilm phenotypes ([1]; PTIO 1 mM in addition to SNP 500 nM): ≥ 40%
2 | N[C@@H](CCC(=O)N[C@@H](CSN=O)C(=O)NCC(=O)O)C(=O)O [GSNO, S-nitroso-L-glutathione] | decreases in biofilm formation | increases in planktonic growth | stability of biofilms [2]: significant effect on stability
3 | NC[C@H]1O[C@H](O[C@H]2[C@H](O)[C@@H](O[C@H]3O[C@H](CO)[C@@H](O)[C@H](N)[C@H]3O)[C@H](N)C[C@@H]2N)[C@H](N)C[C@@H]1O [tobramycin] |  |  | antimicrobial giving the highest effect in combination with SNP [3]: highest effect
4 | CC(=O)N[C@H](C(=O)O)C(C)(C)SN=O (racemic) [SNAP, S-nitroso-N-acetylpenicillamine] | decreases in biofilm formation | increases in planktonic growth | dispersal of biofilms [4]: effective for dispersal
